Source: publication PMC7865627, “Small Molecule-Based Prodrug Targeting Prostate Specific Membrane Antigen for the Treatment of Prostate Cancer” (Cancers, 2021)
Where two headings read alike, the source gives them in different places. *1 amine or outer side, *2 acyl side, *3 side chain or, on linkers, in order; H or OH if unused. Where a SMILES comes first, the peptide text is derived from it. Bridges are numbered along the chain shown (N, C = ends). Roman numbers before positions name the chains, in order. [ ]: non-standard residue; d: D form. The star is where a group is joined. X3 = CN1/C(=C/C=C/C=C/C2=[N+](CCCCCC(=O)*)c3ccc4ccccc4c3C2(C)C)C(C)(C)c2c1ccc1ccccc21; Dolaproine = CO[C@@H]([C@@H]1CCCN1)[C@@H](C)C(=O)O; Dil = CC[C@H](C)[C@H](NC)[C@@H](CC(=O)O)OC; X4 = O=C1CC([*:2])C(=O)N1CCCCCC(=O)[*:1]; γGlu = O=C(O)[C@H](CCC(=O)[*:2])N[*:1]; PABC = O=C(OCc1ccc(N[*:1])cc1)[*:2]; X2 = C[C@@H](N*)[C@@H](O)c1ccccc1; Trx = NC[C@H]1CC[C@H](C(=O)O)CC1; Cit = NC(=O)NCCC[C@H](N)C(=O)O; NMeV = CN[C@H](C(=O)O)C(C)C; CO = O=C([*:1])[*:2]; Ahx = NCCCCCC(=O)O

Assays:
[1] = molecular target: PSMA receptor; details: cited from earlier work
Excerpt: Prostate-specific membrane antigen (PSMA) is a type II transmembrane protein that is overexpressed (by 100–1000 fold) by virtually all prostate cancers. PSMA expression is further increased in poorly differentiated, metastatic, hormone-refractory carcinomas and in cancer cells from castration-resistant prostate cancer patients. Increased PSMA expression is correlated with the risk of early prostate cancer recurrence after radical prostatectomy. […] BIND014 increased intr ...

[2] = system: heterotopic PC3pip tumors; assay: Heterotopic PC3pip tumor survival study; type: in vivo
Experimental: Male athymic nude mice were implanted subcutaneously with 1 × 10^6 of PC3pip cells 100 μL of matrigel. When tumor size reached approximately 100 mm^3 (tumor volume = Length × width^2/2), mice received drugs through tail vein injection every 4 days with a total of five doses. Mice were treated every 4 days with a total of five doses. Animals were weighed and tumor size measured every other day for 90 days. Cures were defined as no tumor present at end of the 90-day study. When tumors became too large or animals were moribund they were euthanized. Five mice were used in each group.

[3] = system: tumor-free athymic nude mice; assay: Maximum tolerated dose, single i.v. dose; type: in vivo, mouse; details: male nude mice, 3 per dose group, 14 days, 20% body weight loss or overt toxicity as end point
Excerpt: Mice were monitored daily for 14 days.

[4] = system: PSMA-negative PC3flu cells; assay: In vitro cytotoxicity assay (CCK-8), PC3flu; type: cell-based, human; details: 72 h incubation, CCK-8; mean ± SD
Experimental: (§1) Cells (1000/well) were seeded in 96-well culture plates the day before treatment.

[5] = system: PSMA-positive PC3pip cells; assay: In vitro cytotoxicity assay (CCK-8), PC3pip; type: cell-based, human
Experimental: as §1

[6] = system: α-tubulin in PC3pip cells; assay: Immunofluorescence analysis of alpha-tubulin, PC3pip; type: cell-based, human; details: 5 nM, 24 h, Alexa Fluor 488 α-tubulin antibody
Experimental: (§2) Cells were washed and fixed with 4% paraformaldehyde for 10 min, permeabilized with 0.1% Triton™ X-100 for 10 min, and blocked with 1% BSA for 1 h at room temperature. Alpha-tubulin (B5-1-2) Alexa Fluor 488 Mouse Monoclonal Antibody (Invitrogen) was then added at 2 µg/mL in 0.1% BSA and incubated for 3 h at room temperature. Cells were counterstained with DAPI, mounted with Fluor-Mount aqueous mounting solution, and observed under Leica DM4000B fluorescence microscopy at 40×.

[7] = system: PSMA-negative PC3flu cells; assay: In vitro cellular uptake (confocal fluorescence), PC3flu; type: cell-based, human; details: 50 nM conjugate, 4 h, 37 °C, confocal microscopy
Experimental: Figure 2 In vitro fluorescence studies of PSMA-1-MMAE-Cy5.5 conjugates. In vitro cellular uptake results of PSMA-targeted drug conjugates. Cells were incubated with 50 nM of drug conjugates for 4 h. Nuclei were stained by DAPI and are false colored blue, lysosomes were detected by LysoOrange and are false colored green, and drug conjugates are false colored red. Selective uptake was observed only in PC3pip cells and the conjugates were mainly located in lysosomes. Specificity of drug conjugates for PSMA binding was evaluated by including 1 mM of unlabeled PSMA-1 ligand during incubations. […] Images are taken at 40×. Representative images are shown from three independent experiments.
PC3pip and PC3flu cells were seeded in µ-Slide 8-Well Chamber Slide (ibidi GmbH, Munich, Germany) at 2000 cells/well. […] Cells were washed with PBS and stained with DAPI and LysoOrange (Abcam Inc., Cambridge, UK) for 30 min at 37 °C and 5% CO2, after which they were washed again with PBS and fresh medium added. Selectivity was determined by including 20-fold excess of the PSMA-1 ligand. The uptake and localization of the drug conjugates were visualized under a confocal microscope (Leica Biosystem, Wetzlar, Germany) at 40×.

[8] = Stability on incubation in PBS (without cathepsin), HPLC; type: in vitro ADME; details: incubation with PBS without cathepsin, triplicate
Experimental: (§3) Cathepsin is a prevalent protease that PSMA internalized ligands will encounter as they enter into late endosomes/lysosomes. To investigate if PSMA-targeted drug conjugates were cleavable by cathepsin B, the two conjugates were incubated with or without cathepsin protease and chromatographed by high performance liquid chromatography (HPLC).
(§4) At different time intervals, 40 μL of the solution was taken out into tubes loaded with 1 μL of 1 mM E64 protease inhibitor. […] Studies were performed in triplicate.

[9] = system: α-tubulin in PC3flu cells; assay: Immunofluorescence analysis of alpha-tubulin, PC3flu; type: cell-based, human; details: 5 nM, 24 h, Alexa Fluor 488 α-tubulin antibody
Experimental: as §2

[10] = system: heterotopic PC3pip and PC3flu tumors; assay: In vivo NIR fluorescence imaging, mice bearing PC3pip and PC3flu tumors; design: species or system mouse; details: 40 nmol/kg i.v., 24-h post-injection, n = 5
Experimental: Under guidelines of the animal care and use committee at Case Western Reserve University (IACUC#150033) 6–8-week old male Balb/c athymic nude mice were implanted subcutaneously with 1 × 10^6 of PC3flu and PC3pip in 100 μL of matrigel on the left and right flank, respectively. […] Fluorescence imaging was performed using the Maestro In Vivo Imaging system (Perkin-Elmer Inc., Waltham, MA, USA). At 72-h post injection, mice were euthanized, tumor and organs were extracted for ex vivo imaging. Tumors were snap-frozen in OCT, cut into 10 μm thick sections and fixed on slides. The fluorescence signal from cy5.5 was observed under a Leica DM4000B microscope.

[11] = molecular target: T1, human liver cathepsin B (Homo sapiens, UniProt P07858); assay: Enzymatic cleavage by cathepsin B, HPLC analysis; type: in vitro ADME; details: activated human liver cathepsin B, 2 μM conjugate, 37 °C, triplicate
T1 construct: purchased Anthens Research and Technology, Anthens, AL, USA (so in the source); host or cells: human liver (tissue-derived enzyme)
Experimental: as §3, §4

[12] = system: heterotopic PC3pip tumors; assay: Heterotopic PC3pip tumor survival study; type: in vivo; details: 160 nmol/kg, tumors extracted on day 4, compared with PSMA-1-McMMAE-Cy5.5
[13] = In vitro cytotoxicity assay (CCK-8), PC3pip; type: cell-based, human
Experimental: as §1

[14] = 160 nmol/kg i.v. every 4 days, five doses, n = 5
[15] = 72 h incubation, CCK-8, mean ± SD

SMILES: O=C(O)CCC(NC(=O)NC(CCC(=O)O)C(=O)O)C(=O)O (stereo not drawn) [DUPA, 2-(3-(1,3-dicarboxypropyl)-ureido) pentanedioic acid]
- Ki ([1]; read-out: Ki to PSMA receptor (DUPA)): 8 nM

SMILES: CC[C@H](C)[C@@H]([C@@H](CC(=O)N1CCC[C@H]1[C@H](OC)[C@@H](C)C(=O)N[C@H](C)[C@@H](O)c1ccccc1)OC)N(C)C(=O)[C@@H](NC(=O)[C@@H](NC)C(C)C)C(C)C [MMAE, monomethyl auristatin E, reference compound] (H-[NMeV]V[Dil][Dolaproine]-X2)
- tumor growth (in words), 160 nmol/kg [2, 14]: did not show any antitumor activity
- therapeutic index ([2]; MTD/effective dose): 1
- lowest dose to effectively inhibit tumor growth ([2]; i.v. every 4 days, five doses, tumor growth inhibited for 30 days, n = 5): 700 nmol/kg
- maximum tolerated dose (MTD) [3]: 700 nmol/kg
- EC50 [4]: 0.21 ± 0.04 nM
- EC50 [5, 15]: 0.24 ± 0.05 nM
- selectivity, differential cytotoxicity ratio between PC3pip and PC3flu cells ([5]; more potent for PC3pip than PC3flu): no selectivity

SMILES: CC[C@H](C)[C@@H]([C@@H](CC(=O)N1CCC[C@H]1[C@H](OC)[C@@H](C)C(=O)N[C@H](C)[C@@H](O)c1ccccc1)OC)N(C)C(=O)[C@@H](NC(=O)[C@H](C(C)C)N(C)C(=O)CCCCCN1C(=O)CC(SC[C@H](NC(=O)[C@@H](CCC(=O)O)NC(=O)[C@@H](CCC(=O)O)NC(=O)[C@@H](CCC(=O)O)NC(=O)CCCCCNC(=O)[C@H]2CC[C@H](CNC(=O)CC[C@H](NC(=O)N[C@@H](CCC(=O)O)C(=O)O)C(=O)O)CC2)C(=O)NCCCCCC(=O)N[C@@H](CCCCNC(=O)CCCCC[N+]2=C(/C=C/C=C/C=C3/N(C)c4ccc5ccccc5c4C3(C)C)C(C)(C)c3c2ccc2ccccc32)C(N)=O)C1=O)C(C)C (stereo partly drawn) [PSMA-1-McMMAE-Cy5.5]
- disruption of α-tubulin in PC3pip cells (in words) [6]: no apparent disruption of tubulin
- cellular uptake, fluorescence in PC3flu cells (in words) [7]: no fluorescence signal was observed
- stability in PBS (in words) [8]: stable
- disruption of α-tubulin in PC3flu cells (in words) [9]: no apparent disruption of tubulin
- uptake in PSMA-negative PC3flu tumors (in words) [10]: little to no detectable uptake
- cleavage by cathepsin B (in words) [11]: remained intact
- EC50, cytotoxicity to PC3flu cells [4]: no EC50 values could be obtained
- EC50, cytotoxicity to PC3pip cells [5, 15]: no EC50 values could be obtained

SMILES: CC[C@H](C)[C@@H]([C@@H](CC(=O)N1CCC[C@H]1[C@H](OC)[C@@H](C)C(=O)N[C@H](C)[C@@H](O)c1ccccc1)OC)N(C)C(=O)[C@@H](NC(=O)[C@H](C(C)C)N(C)C(=O)OCc1ccc(NC(=O)[C@H](CCCNC(N)=O)NC(=O)[C@@H](NC(=O)CCCCCN2C(=O)CC(SC[C@H](NC(=O)[C@@H](CCC(=O)O)NC(=O)[C@@H](CCC(=O)O)NC(=O)[C@@H](CCC(=O)O)NC(=O)CCCCCNC(=O)[C@H]3CC[C@H](CNC(=O)CC[C@H](NC(=O)N[C@@H](CCC(=O)O)C(=O)O)C(=O)O)CC3)C(=O)NCCCCCC(=O)N[C@@H](CCCCNC(=O)CCCCC[N+]3=C(/C=C/C=C/C=C4/N(C)c5ccc6ccccc6c5C4(C)C)C(C)(C)c4c3ccc3ccccc43)C(N)=O)C2=O)C(C)C)cc1)C(C)C (stereo partly drawn) [PSMA-1-VcMMAE-Cy5.5] (I: V[Cit][PABC][NMeV]V[Dil][Dolaproine]-X2 / II: {Glu-CO-γGlu-Trx-Ahx}-[dE][dE][dE]C[Ahx]K(X3)-NH2; linker I:N-II:4 via X4)
- disruption of α-tubulin in PC3pip cells (in words) [6]: selective tubulin disruption
- cures (tumor-free mice at end of 90-day study), 160 nmol/kg [2, 14]: 3/5 and three out of five
- tumor growth (in words), 160 nmol/kg [2, 14]: effectively inhibited tumor growth
- cures, lower dose group of Figure S4B ([2]; dose group not printed beside the label, i.v. every 4 days, five doses, n = 5): 1/5
- cellular uptake, fluorescence in PC3flu cells (in words) [7]: no fluorescence signal was observed
- stability in PBS (in words) [8]: stable
- disruption of α-tubulin in PC3flu cells (in words) [9]: no obvious changes in α-tubulin structure
- uptake in PSMA-negative PC3flu tumors (in words) [10]: little to no detectable uptake
- cleavage by cathepsin B (in words) [11]: degraded rapidly
- half-life in the presence of cathepsin [11]: 19.8 min
- apoptosis, caspase 3 staining of tumors (in words) [12]: significantly more apoptosis
- EC50 ([13]; 72 h, CCK-8, in the presence of protease inhibitor E64 (50 μM given for the Cy5.5 conjugates), read-out: EC50, cytotoxicity to PC3pip cells + E64): 3.66 nM
- EC50 ([13]; 72 h incubation, CCK-8, mean ± SD, read-out: EC50, cytotoxicity to PC3pip cells): 0.84 nM

SMILES: NCCCC[C@H](NC(=O)N[C@@H](CCC(=O)O)C(=O)O)C(=O)O [ZJ24, (S)-2-(3-((S)-5-amino-1-carboxypentyl)ureido) pentanedioic acid]
- Ki ([1]; read-out: Ki to PSMA (ZJ24)): 0.3 nM
